Reference: ChEMBL document CHEMBL1136982, “Discovery of 1-benzoyl-3-cyanopyrrolo[1,2-a]quinolines as a new series of apoptosis inducers using a cell- and caspase-based high-throughput screening assay. 2: Structure-activity relationships of the 4-, 5-, 6-, 7- and 8-positions” (Bioorg Med Chem Lett, 2009)
Calls of active or inactive are those of the source. The calls are words filed in the database; no cut-off is given here.

Tests used:
T47D [1] = assay: Induction of apoptosis in human T47D cells measured after 48 hrs by cell and caspase based HTS assay; format: functional
HCT-116 [2] = assay: Induction of apoptosis in human HCT116 cells measured after 48 hrs by cell and caspase based HTS assay; format: functional; conditions: HCT-116, 48 h
SNU-398 [3] = assay: Induction of apoptosis in human SNU398 cells measured after 48 hrs by cell and caspase based HTS assay; format: functional; conditions: SNU-398, 48 h
[4] = Inhibition of tubulin polymerization
T47D [5] = assay: Growth inhibition of human T47D cells after 48 hrs; format: functional
HCT-116 [6] = assay: Growth inhibition of human HCT116 cells after 48 hrs; format: functional; conditions: HCT-116, 48 h
SNU-398 [7] = assay: Growth inhibition of human SNU398 cells after 48 hrs; format: functional; conditions: SNU-398, 48 h
T47D [8] = assay: Cell cycle arrest in human T47D cells by accumulation at G2/M phase after 24 to 48 hrs by flow cytometry; format: functional, cell-based
[9] = Inhibition of tubulin polymerization up to 50 uM

EC50 (T47D [1])	EC50 (HCT-116 [2])	EC50 (SNU-398 [3])	IC50 [4]	GI50 (T47D [5])	GI50 (HCT-116 [6])	GI50 (SNU-398 [7])	Activity [9]	SMILES	Activity (T47D [8])
2800 nM	6000 nM	4900 nM						CN(C)CCOc1cccc2c1ccc1c(C#N)cc(C(=O)c3ccccc3)n12	
> 10000 nM	> 10000 nM	> 10000 nM						N#Cc1cc(C(=O)c2ccccc2)n2c1ccc1cc(Cl)ccc12	
> 10000 nM	> 10000 nM	> 10000 nM						Cc1ccc2c(ccc3c(C#N)cc(C(=O)c4ccccc4)n32)c1	
			< 5000 nM					N#Cc1cc(C(=O)c2ccc(N)cc2)n2c1ccc1ccccc12	
32 nM	36 nM	26 nM		7 nM	10 nM	5 nM		CC[C@]1(O)C[C@@H]2CN(CCc3c([nH]c4ccccc34)[C@@](C(=O)OC)(c3cc4c(cc3OC)N(C)[C@H]3[C@@](O)(C(=O)OC)[C@H](OC(C)=O)[C@]5(CC)C=CCN6CC[C@]43[C@@H]65)C2)C1 [VINBLASTINE]	
> 10000 nM	> 10000 nM	> 10000 nM						N#Cc1cc(C(=O)c2ccccc2)n2c1ccc1c(O)cccc12	
5800 nM	> 10000 nM	> 10000 nM						Cc1cc2ccccc2n2c(C(=O)c3ccccc3)cc(C#N)c12	
290 nM	1900 nM	1400 nM						N#Cc1cc(C(=O)c2ccc(-n3ccnc3)cc2)n2c1ccc1c(Cl)cccc12	
80 nM	3700 nM	1500 nM		18 nM	8600 nM	4800 nM		COc1cccc(C(=O)c2cc(C#N)c3ccc4c(Cl)cccc4n23)c1	
			< 5000 nM					N#Cc1cc(C(=O)c2ccc(-n3ccnc3)cc2)n2c1ccc1ccccc12	
150 nM	3800 nM	1400 nM						N#Cc1cc(C(=O)c2ccc(N)cc2)n2c1ccc1c(Cl)cccc12	
> 10000 nM	> 10000 nM	> 10000 nM						N#Cc1cc(C(=O)c2ccccc2)n2c1ccc1c(OCCN3CCOCC3)cccc12	
520 nM	310 nM	220 nM	< 5000 nM					Cc1cc2c(C#N)cc(C(=O)c3ccccc3)n2c2ccccc12	
83 nM	1900 nM	> 10000 nM					inactive	N#Cc1cc(C(=O)c2ccccc2)n2c1ccc1c(Cl)cccc12	Active
62 nM	> 10000 nM	> 10000 nM						N#Cc1cc(C(=O)c2ccc([N+](=O)[O-])cc2)n2c1ccc1c(Cl)cccc12	
210 nM	5600 nM	5000 nM						N#Cc1cc(C(=O)c2cccc(N)c2)n2c1ccc1c(Cl)cccc12	
280 nM	> 10000 nM	5000 nM						Cc1ccc2ccc3c(C#N)cc(C(=O)c4ccccc4)n3c2c1	
37 nM	18 nM	9 nM		26 nM	60 nM	61 nM		CC(=O)O[C@H]1C(=O)[C@@]2(C)[C@H]([C@H](OC(=O)c3ccccc3)[C@]3(O)C[C@H](OC(=O)[C@H](O)[C@@H](NC(=O)c4ccccc4)c4ccccc4)C(C)=C1C3(C)C)[C@]1(OC(C)=O)CO[C@@H]1C[C@@H]2O [PACLITAXEL]	
> 10000 nM	> 10000 nM	> 10000 nM						N#Cc1cc(C(=O)c2ccccc2)n2c1ccc1c([N+](=O)[O-])cccc12	
280 nM	2700 nM	2600 nM		160 nM	5900 nM	2600 nM	inactive	N#Cc1cc(C(=O)c2cccc(O)c2)n2c1ccc1c(Cl)cccc12	Active
53 nM	> 10000 nM	> 10000 nM					inactive	N#Cc1cc(C(=O)c2ccc(F)cc2)n2c1ccc1c(Cl)cccc12	Active
150 nM	> 10000 nM	> 10000 nM						N#Cc1cc(C(=O)c2cccc([N+](=O)[O-])c2)n2c1ccc1c(Cl)cccc12	
